According to patent US20230374575A1, “METHOD FOR VIRUS DETECTION” (priority 2020, published 2023):
Several values for one entry are separate records, joined by “and”; a condition that tells them apart may be missing. Equal entries are not always repeated.

What was measured:
[1] = tested on: Vaccinia Virus, Elstree strain, ATCC VR1549; assay type: cell-based
[2] = tested on: reverse transcriptase (RT); assay: (RT-)qPCR with test substance added, RT reaction (IC RNA template); assay type: biochemical; settings: for maximal non-inhibiting concentration, RT reaction: final concentration in (RT-)PCR, QuantiNova Pathogen Mix, 40 cycles, compared to water control (Examples 1, 2)
Taq polymerase = biological target: T1, Taq polymerase (Thermus aquaticus, UniProt P19821); assay: (RT-)qPCR with test substance added, DNA template; assay type: biochemical; settings: for maximal non-inhibiting concentration, Taq polymerase: final concentration in (RT-)PCR, QuantiNova Pathogen Mix, 40 cycles, compared to water control (Examples 1, 2)
T1 construct: purchased QIAGEN (QuantiNova Pathogen + IC Kit; QIAprep& Viral RNA UM Kit)

(RT-)PCR reaction = assay: (RT-)PCR compatibility of test substance, reaction as a whole; assay type: biochemical
Bovine coronavirus = assay: Virucidal activity test according to DIN EN 14476:2019-10, Bovine coronavirus; assay type: cell-based, Bovine coronavirus (Betacoronavirus 1); settings: for inactivation of Bovine coronavirus (in words): at the tested concentrations (Example 4); for Log10 reduction factor(s) incl. 95% confidence interval(s) against Bovine coronavirus: conc. 1% (DDAC 0.015%, Braunol povidone iodine 0.05%), initial results
Procedure: Analysis was performed by Henkel (Dusseldorf) according to the European norm DIN EN 14476:2019-10.
The following test for virucidal activity of the different test substances were performed by Henkel (Dusseldorf) according to the European norm DIN EN 14476:2019-10. The experimental conditions were identical to those in Example 3 but with a Bovine coronavirus instead of Vaccinia virus.

[3] = tested on: in vitro transcribed SARS-CoV-2 genes N1 and N2; assay type: biochemical
DNA and/or RNA viruses = assay: Virucidal suspension tests, summary statement; assay type: cell-based; settings: summary of the examples; against DNA and/or RNA viruses
[4] = tested on: N1 and N2 genes of SARS-CoV-2; assay type: biochemical
[5] = Example 6, FIG. 6A, Tween20 at very high concentrations, Tween60 and Brij58 at much lower concentrations
[6] = Example 7, FIG. 7, without Tween20
[7] = Example 8, FIG. 8, substance alone, increasing concentrations, QIAprep&amp reaction mix without Extraction Buffer step

T1 sequence (P19821 whole entry): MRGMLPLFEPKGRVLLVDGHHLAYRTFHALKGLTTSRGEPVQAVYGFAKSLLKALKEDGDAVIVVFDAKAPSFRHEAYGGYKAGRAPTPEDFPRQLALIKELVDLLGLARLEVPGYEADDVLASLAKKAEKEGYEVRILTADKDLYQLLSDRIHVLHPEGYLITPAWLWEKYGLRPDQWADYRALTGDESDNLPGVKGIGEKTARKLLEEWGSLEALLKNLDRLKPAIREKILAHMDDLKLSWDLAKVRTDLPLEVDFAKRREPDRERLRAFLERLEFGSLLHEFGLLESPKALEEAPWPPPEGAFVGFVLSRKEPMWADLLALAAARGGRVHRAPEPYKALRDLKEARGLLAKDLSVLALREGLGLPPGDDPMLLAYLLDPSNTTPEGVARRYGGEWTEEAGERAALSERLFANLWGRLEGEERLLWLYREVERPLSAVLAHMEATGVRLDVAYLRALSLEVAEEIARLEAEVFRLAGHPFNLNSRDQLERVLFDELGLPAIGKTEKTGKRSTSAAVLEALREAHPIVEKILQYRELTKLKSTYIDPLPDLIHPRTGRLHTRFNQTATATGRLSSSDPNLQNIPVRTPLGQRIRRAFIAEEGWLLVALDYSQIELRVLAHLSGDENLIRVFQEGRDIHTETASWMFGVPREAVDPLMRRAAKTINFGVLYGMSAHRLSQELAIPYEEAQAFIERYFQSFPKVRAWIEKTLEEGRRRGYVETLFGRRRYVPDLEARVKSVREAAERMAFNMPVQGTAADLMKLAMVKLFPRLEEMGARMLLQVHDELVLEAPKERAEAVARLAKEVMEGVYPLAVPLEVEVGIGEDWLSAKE

Compound: CCCCCCCCCCCC(=O)OCCOCCOCCOCCOCCOCCOCCOCCOCCOCCOCCOCCOCCOCCOCCOCCOCCOCCOCCOCCOCC(OCCOCCOCCOCCOCCOCCOCCOCCOCCOCCOCCOCCOCCOCCOCCOCCOCCOCCOCCOCCO)C1OCC(OCCOCCOCCOCCOCCOCCOCCOCCOCCOCCOCCOCCOCCOCCOCCOCCOCCOCCOCCOCCO)C1OCCOCCOCCOCCOCCOCCOCCOCCOCCOCCOCCOCCOCCOCCOCCOCCOCCOCCOCCOCCO (centres unmarked) [Tween20, polyoxyethylene (20) sorbitan monolaurate]
- log10 reduction factor(s) incl. 95% confidence interval(s) against Vaccinia Virus, Elstree strain, ATCC VR1549, with clean conditions [1]: 2.00 ± 0.54 log10 and 1.88 ± 0.41 log10
- virucidal activity against Vaccinia virus (in words) [1]: least reduction of the virus titer
- counteracting effect on SDS inhibition of the reverse transcription (in words) ([2]; 3% and 5% Tween20 in the PCR, depending on the Tween20 concentration): significantly reduced
- maximal non-inhibiting concentration, RT reaction [2]: ≤ 0.35%
- counteracting effect on SDS inhibition of the Taq polymerase (in words) (Taq polymerase; 3% and 5% Tween20 in the PCR, even at the highest concentrations of SDS tested): reactivates the activity
- maximal non-inhibiting concentration, Taq polymerase (Taq polymerase): ≤ 0.35%
- enzyme inhibition in (RT-)PCR (in words) ((RT-)PCR reaction; 0.7% final concentration in (RT-)PCR): some inhibition
- inhibition of the (RT-)PCR (in words) ((RT-)PCR reaction; [5]): only a moderate inhibition

Compound: polyoxyethylene(20) cetyl ether [Brij58]
- inhibition of the (RT-)PCR (in words) ((RT-)PCR reaction; [5]): no PCR inhibition at all

Compound: povidone iodine
- reduction of the virus titer [1]: 4 log10 grades
- virucidal activity against Vaccinia virus (in words) [1]: strong virucidal activity
- inactivation of Bovine coronavirus (in words) (Bovine coronavirus): effectively inactivated
- Log10 reduction factor(s) incl. 95% confidence interval(s) against Bovine coronavirus (Bovine coronavirus; contact time 15 min): >6.13 ± 0.25 Log10
- Log10 reduction factor(s) incl. 95% confidence interval(s) against Bovine coronavirus (Bovine coronavirus; contact time 60 min): >5.88 ± 0.25 Log10
- maximal non-inhibiting concentration, RT reaction [2]: ≤ 0.0175%
- maximal non-inhibiting concentration, Taq polymerase (Taq polymerase): ≤ 0.0175%
- inhibition of the (RT-)PCR (in words) [3]: significant inhibition
- reduction of the virus titer (DNA and/or RNA viruses): about 4 log10

Compound: CCCCCCCCCCCCOS(=O)(=O)[O-].[Na+] [SDS, Sodium dodecyl sulfate]
- concentration from which Ct-values increase, reverse transcriptase [2, 6]: ≥ 0.03125%
- concentration from which Ct-values increase, Taq polymerase (Taq polymerase; [6]): ≥ 0.125%
- inhibition of the (RT-)PCR (in words) ((RT-)PCR reaction; [7]): significant inhibition

Compound: CCCCCCCCCCCC[N+](C)(C)[O-] [LDAO, Lauryldimethylamin-N-oxide (N,N-Dimethyldodecylamine N-oxide)]
- inhibition of the RT reaction (in words) ([2]; LDAO at 0.035%, Ecosurf EH-9 at all tested concentrations (0.035-0.7%), compared to water control): slight but acceptable inhibition
- maximal non-inhibiting concentration, RT reaction [2]: 0.035%
- maximal non-inhibiting concentration, Taq polymerase (Taq polymerase): 0.035%

Compound: O=C(O)CCP(CCC(=O)O)CCC(=O)O [TCEP, Tris-(2-carboxyethyl)-phosphin]
- concentration at which Ct-values increase again [3]: ≥ 2 mM
- concentration that neutralizes the inhibitory effect of 0.5% povidone iodine in RT-PCR [3]: 5 mM
- decrease of the Ct-value [3]: about 2

Compound: polyoxyethylene (20) sorbitan monostearate [Tween60]
- inhibition of the (RT-)PCR (in words) ((RT-)PCR reaction; [5]): no PCR inhibition at all

Compound: CCCCCCCCCC[N+](C)(C)CCCCCCCCCC.[Cl-] [DDAC, Didecyldimethylammonium chloride]
- reduction of the virus titer [1]: 4 log10 grades
- virucidal activity against Vaccinia virus (in words) [1]: strong virucidal activity
- inactivation of Bovine coronavirus (in words) (Bovine coronavirus): effectively inactivated
- Log10 reduction factor(s) incl. 95% confidence interval(s) against Bovine coronavirus (Bovine coronavirus; contact time 15 min): >5.13 ± 0.25 Log10
- Log10 reduction factor(s) incl. 95% confidence interval(s) against Bovine coronavirus (Bovine coronavirus; contact time 60 min): >4.88 ± 0.25 Log10
- maximal non-inhibiting concentration, RT reaction [2]: ≤ 0.005%
- maximal non-inhibiting concentration, Taq polymerase (Taq polymerase): ≤ 0.005%
- inhibition of the (RT-)PCR (in words) ((RT-)PCR reaction; [7]): significant inhibition
- inhibition of the (RT-)PCR by substance in transport/storage medium (in words) [4]: no inhibition
- reduction of the virus titer (DNA and/or RNA viruses): about 4 log10
